“Also recorded” adds a separate entry of the source.
How the values were obtained:
[1] = Serum ALT/bilirubin and hepatic histology after GC-1 or T3; type: in vivo, mice
Experimental: All studies on mice were performed in strict accordance with Guidelines. Eight-week old male C57BL/6 male mice (Jackson/Charles River) were maintained on a standard laboratory basal diet (Test Diet) (n=4), or fed a T3-supplemented diet (4 mg/Kg of diet, Sigma Chemicals, St. Louis Mo.) (n=4). GC-1 was administered to the eight week-old male C57BL/6 male mice either via GC-1-supplemented diet (5 mg/Kg of diet, Medchem Express) for 8 days (n=4) or via daily intraperitoneal injections (IP) of GC-1 dissolved in DMSO (0.3 mg/kg/dose) for 8 days (n=7). As a control group for injections, DMSO alone was injected daily intraperitoneal (IP) for 8 days (n=5). Mice were sacrificed 24 hours after the last injection.

[2] = tested on: hMet-S45Y-β-catenin HCC model; assay: GC-1 diet in hMet-S45Y-β-catenin HCC model; type: in vivo, mice; conditions: for increase in gene expression of deiodinase (RT-PCR, liver): p<0.001
Experimental: SBTT plasmids and HTVI have been described previously (Tao et al., Hepatology 2016, 64:1587-605). Briefly, […] pT3-EF5α-hMet-V5 and pT3-EF5α-S45Y-β-catenin-Myc combination along with the transposase in a ratio of 25:1 were diluted in 2 ml of normal saline (0.9% NaCl), filtered through 0.22 μm filter (Millipore), and injected into the lateral tail vein of 23 FVB mice that were around 6-week-old, in 5-7 seconds. These mice are referred henceforth as hMet-mutant-β-catenin mice. Four weeks after injection, hMet-mutant-β-catenin mice were randomized into two groups. One group was kept on basal diet (n=12) and another group was switched to GC-1-supplemented diet (5 mg/kg of diet, Medchem Express) (n=11). Animals on control diet were sacrificed at either 21 days (n=8) or 10 days (n=4) after initiation of diet. Similarly, animals on GC-1-diet were sacrificed at either 21 days (n=7) or 10 days (n=4) after initiation of the diet. The animals were given access to food and water ad libitum with a 12-hour light/dark daily cycle. One intraperitoneal injection of BrdU was performed on day 9 during 10 days of GC-1 or basal diet treatment and livers were harvested 24 hours later. Guidelines for the Care and Use of Laboratory Animals were followed.
Four micron formalin-fixed sections were deparaffinized in graded xylene and alcohol and rinsed in PBS. To block endogenous peroxidase activity, the sections were incubated in 3% hydrogen peroxide (Sigma). For antigen retrieval, slides were microwaved in citrate buffer followed by blocking with Superblock (ScyTek Laboratories, Logan, Utah) for 10 minutes. Sections were incubated overnight at 4° C. or 1 hour room temperature in the following antibodies: cyclin-D1 (Thermo-Scientific, Fremont, Calif.), Glutamine synthetase, Ki-67, Myc-tag and CD45 (Santa Cruz Biotechnology, Dallas, Tex.). Sections were then incubated with species-specific secondary horseradish peroxidase-conjugated antibody for 30 minutes at room temperature. Sections stained with antibodies were incubated with streptavidin-biotin and signal was detected with DAB. Cell death was evaluated in liver sections by terminal deoxynucleotidyl transferase dUTP nick end labeling (TUNEL) using manufacturer's instructions available with the kit (EMD-Millipore). BrdU was stained with mouse antibody (Becton Dickinson, Franklin Lakes, N.J.) as previously described (Alvarado et al., Gene Expr 2016, 17:19-34). Briefly, tissue sections were deparaffinized, exposed to 0.3% hydrogen peroxide in deionized water for 10 minutes to block endogenous peroxidase, treated with 2N HCl, incubated with trypsin 0.1% for 20 minutes and then with normal goat serum for 20 minutes at room temperature. Sections were then incubated overnight in cold room with anti-BrdU monoclonal antibody, followed by biotinylated goat anti-mouse IgG. DAB kit was then applied, and sections were counterstained with hematoxylin.
For quantification of Ki-67 immunohistochemistry (IHC), pictures were taken at 200× magnification from either tumor or non-tumor areas in the same slide. Each picture was separated into DAB staining channel and hematoxylin staining channel by Color Deconvolution using Imagej Fiji. To quantify the number of Ki-67 positive nuclei on each picture, the DAB staining on the DAB channel was highlighted with the threshold of 48 and then quantified with Analyze Particles. All particles of areas smaller than 100 pixels were excluded. To quantify the total number of nuclei on each picture the hematoxylin staining on the hematoxylin channel was highlighted with the threshold of 205 and then quantified with Analyze Particles with similar exclusion of small areas. The percentage of Ki-67-positive nuclei on each picture was calculated by dividing the number of particles counted from DAB channel by the number of particles counted from the hematoxylin channel. […]

[3] = tested on: β-catenin-TCF4 reporter activity in Hep3B cells (wild-type CTNNB1); assay: TopFlash reporter assay in Hep3B cells; type: cell-based, human; conditions: 7 μM GC-1 (methods: 5-7 μM, 24 hours), vs DMSO
Excerpt: Three liver tumor cell lines Hep3B, HepG2 and Snu-398 cells were obtained from ATCC (Manassas, Va.). Cells were transfected simultaneously with Renilla reniformis luciferase (pRL-TK; Promega, Madison, Wis.) as a transfection control and TopFlash firefly luciferase plasmids (Upstate Biotechnology, Lake Placid, N.Y.), which contains three copies of the Tcf/Lef sites upstream of a thymidine kinase (TK) promoter and the firefly luciferase gene using Lipofectamine 2000 (Life Technologies). Twenty-four hours after transfection, cells were treated with either DMSO (Fisher Scientific) or 5-7 μM GC-1 (Medchem Express, Monmouth Junction, N.J.) for 24 hours. Lysates were harvested using the Dual-Luciferase Reporter Assay System (Promega, Madison, Wis.). Firefly luciferase signals were normalized to Renilla luciferase and ratio between groups compared by student's t-test to determine significance. P<0.05 was considered significant.

Structure (SMILES): Cc1cc(OCC(=O)O)cc(C)c1Cc1ccc(O)c(C(C)C)c1 [GC-1, Sobetirome]
- serum ALT or total bilirubin ([1]; GC-1 0.3 mg/Kg/dose daily IP 8 days, vs DMSO control): insignificant differences
- hepatic histology (H&E) ([1]; GC-1 daily IP 8 days, vs DMSO control): normal hepatic histology
- histological changes in the livers ([1]; T3 (4 mg/Kg of diet) or GC-1 (5 mg/Kg of diet) chow 8 days, vs basal diet): no histological changes
- increase in gene expression of deiodinase (RT-PCR, liver) ([2]; 10-days of GC-1-diet vs basal diet): around 10 fold
- increase in gene expression of deiodinase (RT-PCR, liver) ([2]; 21-days of GC-1-diet vs basal diet): around 40 fold
- cyclin-D1 and GS IHC of tumors ([2]; 10 days GC-1 diet): continued to be positive
- tumor foci by H&E and Myc-tag staining ([2]; 10 days GC-1 diet): Smaller and fewer tumor foci
- gross liver appearance ([2]; 10 days GC-1 diet vs basal diet): indistinguishable
- liver weight to body weight ratio (LW/BW) ([2]; 10 days GC-1 diet vs basal diet, p=0.0022): significant decrease
- BrdU and Ki-67 IHC within tumor foci ([2]; 10 days GC-1 vs basal diet): notable decrease
- GS levels, WB ([2]; 10 days GC-1 vs basal diet): modest decreases
- Ki-67-positive cell numbers in non-tumor areas ([2]; 10 days GC-1 vs basal diet): No differences
- TUNEL-positive cells ([2]; 10 days GC-1 vs basal diet): Comparable numbers
- cyclin-D1 levels, WB ([2]; 10 days GC-1 vs basal diet): marginal decreases
- number of CD45-positive cells (inflammation) ([2]; 10 days GC-1 vs basal diet): No differences
- total and active β-catenin levels, WB ([2]; 10 days GC-1 vs basal diet): modest decrease in the levels of total but not active β-catenin
- percentage of Ki-67-positive cells within tumor nodules ([2]; 10 days GC-1 vs basal diet, p<0.01): significant decrease
- p-AKT levels, WB ([2]; 10 days GC-1 vs control): did not have any effect
- p-ERK1 and p-ERK2, WB ([2]; 10 days GC-1 vs control): dramatically decreased
- p-Met (Tyr 1234/1235), WB, two independent antibodies ([2]; 10 days GC-1 vs control): profound decrease
- p-STAT3, WB ([2]; 10 days GC-1 vs control): profound decrease
- total AKT levels, WB ([2]; 10 days GC-1 vs control): no change
- total ERK levels, WB ([2]; 10 days GC-1 vs control): unaffected
- total Met levels, WB ([2]; 10 days GC-1 vs control): modestly decreased
- total STAT3 levels, WB ([2]; 10 days GC-1 vs control): overall reduced
- Myc-tag levels by Western blot ([2]; 21 days GC-1 diet): modest decrease
- cyclin-D1 IHC of tumor nodules ([2]; 21 days GC-1 diet): strongly positive
- gross liver appearance ([2]; 21 days GC-1 diet): relatively smooth surface and smaller nodules
- tumor nodules by H&E and Myc-tag IHC ([2]; 21 days GC-1 diet): notably smaller tumor nodules
- liver weight to body weight ratio (LW/BW) ([2]; 21 days GC-1 diet vs basal diet, p=0.0506): almost significant decrease
- GS levels, WB ([2]; 21 days GC-1 vs basal diet): modest decrease
- Ki-67-positive cells in non-tumor areas ([2]; 21 days GC-1 vs basal diet): insignificant
- cyclin-D1 levels, WB ([2]; 21 days GC-1 vs basal diet): no change
- p-AKT levels, WB ([2]; 21 days GC-1 vs basal diet): comparable levels
- p-Met (Tyr 1234/1235), WB ([2]; 21 days GC-1 vs basal diet): dramatic decrease
- p-STAT3 levels, WB ([2]; 21 days GC-1 vs basal diet): striking decrease
- percentage of Ki-67 positive tumor cells within nodules ([2]; 21 days GC-1 vs basal diet): insignificant differences
- total AKT levels, WB ([2]; 21 days GC-1 vs basal diet): marginally increased
- total Met levels, WB ([2]; 21 days GC-1 vs basal diet): only marginally and variably decreased
- total STAT3 levels, WB ([2]; 21 days GC-1 vs basal diet): relatively unaltered
- total and active β-catenin levels, WB ([2]; 21 days GC-1 vs basal diet): remained unaltered
- total and p-ERK1 and total and p-ERK2, WB ([2]; 21 days GC-1 vs basal diet): notably decreased
- TUNEL-positive cells (cell death) ([2]; 21 days, basal diet vs GC-1): More TUNEL-positive cells were evident in the basal diet group
- Glutamine synthetase (GS) IHC of tumors ([2]; 21 days, both groups): uniformly and comparably positive
- TopFlash luciferase reporter activity [3]: no significant effect; also recorded: insignificant differences
